Values quoted from earlier work, collected in US20060165788A1, “Lercanidipine pH dependent pulsatile release compositions” (priority 2004, published 2006).

Key:
[1] = for time to maximum concentration (Tmax): form (I) and form (II) compared with each other
[2] = system: Caco-2 cell; settings: Caco-2 cell apparatus
[3] = not given; remark: listed apart in the source

Row | SMILES | time to maximum concentration (Tmax) [1] | bioavailability ([1]; form (II) compared to Form (I)) | plasma concentration (AUCo-t) ([1]; form (II) compared to Form (I)) | solubility at pH 5 | permeability, Paap [2] [×10⁻⁶ cm/s] | increase of amount of lercanidipine absorbed with simultaneous intake of food ([3]; in vivo) | presystemic first pass elimination ([3]; in vivo) | peak plasma level Tmax ([3]; oral administration, immediate release form) [h]
1 | COC(=O)C1=C(C)NC(C)=C(C(=O)OC(C)(C)CN(C)CCC(c2ccccc2)c2ccccc2)C1c1cccc([N+](=O)[O-])c1 (stereo not drawn) [form (I)] | shorter time to maximum concentration | – | – | – | – | – | – | –
2 | COC(=O)C1=C(C)NC(C)=C(C(=O)OC(C)(C)CN(C)CCC(c2ccccc2)c2ccccc2)C1c1cccc([N+](=O)[O-])c1 (stereo not drawn) [form (II)] | delayed time of maximum concentration | higher bioavailability | higher plasma concentration | – | – | – | – | –
3 | COC(=O)C1=C(C)NC(C)=C(C(=O)OC(C)(C)CN(C)CCC(c2ccccc2)c2ccccc2)C1c1cccc([N+](=O)[O-])c1.Cl (stereo not drawn) [Lercanidipine, methyl 1,1,N-trimethyl-N-(3,3-diphenylpropyl)-2-aminoethyl 1,4-dihydro-2,6-dimethyl-4-(3-nitrophenyl)pyridine-3,5-dicarboxylate] | – | – | – | less than 20 μg/ml | 0.05 | between three and four times | extensive | 1 to 3
